This passage reports melting point results from patent US8101632B2, “5-furopyridinone substituted indazoles” (Albany Molecular Research, Inc., priority 2007, dated 2012).

Where a name gives a salt, the structure may show the parent alone.

The molecule `Cc1ccc(-c2cc3c(=O)n(-c4ccc5c(cnn5CCN5CCCC5)c4)ccc3o2)c(F)c1.Cl` yielded a melting point of 268 to 270 °C. In turn, `O=c1c2cc(-c3cccnc3)oc2ccn1-c1ccc2c(cnn2CCN2CCCC2)c1` (as salt: hydrochloride) [Example 22, 2(Pyridin-3-yl)-5-(1-(2-(pyrrolidin-1-yl)ethyl)-1H-indazol-5-yl)furo[3,2-c]pyridin-4(5H)-one dihydrochloride] came in with a melting point of 188 to 190 °C.

Take `Cl.O=c1c2cc(-c3ccc(C(F)(F)F)cc3)oc2ccn1-c1ccc2c(cnn2CCN2CCCC2)c1`: the melting point lay within 252 to 254 °C. Regarding `Cl.O=c1c2cc(-c3ccc(Cl)cc3)oc2ccn1-c1ccc2c(cnn2CCN2CC[C@@H](O)C2)c1`, the melting point was 242 to 246 °C (dec.). Regarding `O=c1c2cc(-c3ccc(F)cn3)oc2ccn1-c1ccc2c(cnn2CCN2CCCC2)c1` (as salt: hydrochloride) [Example 23, 2-(5-Fluoropyridin-2-yl)-5-(1-(2-(pyrrolidin-1-yl)ethyl)-1H-indazol-5-yl)furo[3,2-c]pyridin-4(5H)-one dihydrochloride], the melting point is 266 to 268 °C. Turning to `Cc1ccc(-c2cc3c(=O)n(-c4ccc5c(cnn5CCN5CCCC5)c4)ccc3o2)cc1.Cl`, the melting point lay within 262 to 264 °C.

For the molecule `Cl.O=c1c2cc(-c3ccc(Cl)cc3)oc2ccn1-c1ccc2c(cnn2CCN2CCOCC2)c1`, the melting point is 260 to 268 °C (dec.). As for `COc1cc(Cl)ccc1-c1cc2c(=O)n(-c3ccc4c(cnn4CCN4CCCC4)c3)ccc2o1.Cl`, the figure is 240 to 242 °C; as for `Cl.O=c1c2cc(-c3ccc(F)cc3Cl)oc2ccn1-c1ccc2c(cnn2CCN2CCCC2)c1`, 140 to 142 °C; as for `Cc1ccc(-c2cc3c(=O)n(-c4ccc5c(cnn5CCN5CCCC5)c4)ccc3o2)nn1.Cl`, 282 to 284 °C. Molecule `Cl.N#Cc1cc(F)ccc1-c1cc2c(=O)n(-c3ccc4c(cnn4CCN4CCCC4)c3)ccc2o1` returned a melting point of 120 to 122 °C. Turning to `O=c1c2cc(-c3ccc(Cl)cn3)oc2ccn1-c1ccc2c(cnn2CCN2CCCC2)c1` (as salt: hydrochloride) [Example 17, 2-(5-Chloropyridin-2-yl)-5-(1-(2-(pyrrolidin-1-yl)ethyl)-1H-indazol-5-yl)furo[3,2-c]pyridin-4(5H)-one dihydrochloride], the melting point was 268 to 270 °C. The molecule `Cl.O=c1c2cc(-c3ccccc3F)oc2ccn1-c1ccc2c(cnn2CCN2CCCC2)c1` showed a melting point of 264 to 266 °C. Molecule `Cl.O=c1c2cc(-c3ccc(F)cc3)oc2ccn1-c1ccc2c(cnn2CCN2CCCC2)c1` registered a melting point of 218 to 220 °C. `Cl.O=c1c2cc(-c3ccc(Cl)cc3Cl)oc2ccn1-c1ccc2c(cnn2CCN2CCCC2)c1` showed a melting point of 258 to 260 °C.

In the case of `Cl.O=c1c2cc(-c3ccc(Cl)cc3F)oc2ccn1-c1ccc2c(cnn2CCN2CCCC2)c1`, the melting point was in the range of 256 to 258 °C. `Cl.O=c1c2cc(-c3ccccc3Cl)oc2ccn1-c1ccc2c(cnn2CCN2CCCC2)c1` gave a melting point of 102 to 104 °C.

Molecule `O=c1c2cc(-c3ncccn3)oc2ccn1-c1ccc2c(cnn2CCN2CCCC2)c1` (as salt: hydrochloride) [Example 26, 2-(Pyrimidin-2-yl)-5-(1-(2-(pyrrolidin-1-yl)ethyl)-1H-indazol-5-yl)furo[3,2-c]pyridin-4(5H)-one Dihydrochloride] had a melting point of 272 to 274 °C. Then `Cl.O=c1c2cc(-c3ccc(F)cc3F)oc2ccn1-c1ccc2c(cnn2CCN2CCCC2)c1`, with 256 to 258 °C; and `Cl.O=c1c2cc(-c3ccc(Cl)cc3)oc2ccn1-c1ccc2c(cnn2CCN2CCNCC2)c1`, with 298 to 300 °C (dec.); and `O=c1c2cc(-c3ccccn3)oc2ccn1-c1ccc2c(cnn2CCN2CCCC2)c1` (as salt: hydrochloride), with 50 to 52 °C.
